Measured values reported in patent US10793557B2, “Sting agonist compounds” (Merck Sharp & Dohme Corp., priority 2018, dated 2020).

Legend:
[1] = system: secretion of interferon-beta from THP1 cells; experiment: IFN-β secretion in THP1 cell culture (5 h); format: cell-based; details: Homo sapiens, THP-1, 5 h, compound at 3 uM, 30 uM cGAMP = 100%, read-out: % Effect relative to 2′3′-cGAMP (@ 3 uM)
Method in brief: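 IFN-β in supernatant measured by AlphaLISA after a 5 h, 37 °C incubation of THP1 cells with compound (10 concentrations, 30000 down to 1.5 nM, 0.3% DMSO) in low-serum RPMI. Values scaled between DMSO and 30 uM cGAMP controls; 4-parameter curve fit yields EC50.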

full-length HAQ STING = target: T1, full-length HAQ STING (Homo sapiens, UniProt Q86WV6, G230A/H232R/R293Q/R71H); experiment: 3H-cGAMP filtration binding assay (HAQ STING); details: competition with tritiated cGAMP, HAQ STING membrane
T1 construct: AviTag (after GG linker) (C); HRV3C cleavage site (after GS linker) (C); HIS8 (C); made in house; host or cells: Trichoplusia ni (Hi-Five) insect cells infected with baculovirus (virus generated and amplified in Sf21 cells); used as a washed membrane preparation
T1 sequence (Q86WV6 with tags, fused parts or gaps R71H/G230A/H232R/R293Q): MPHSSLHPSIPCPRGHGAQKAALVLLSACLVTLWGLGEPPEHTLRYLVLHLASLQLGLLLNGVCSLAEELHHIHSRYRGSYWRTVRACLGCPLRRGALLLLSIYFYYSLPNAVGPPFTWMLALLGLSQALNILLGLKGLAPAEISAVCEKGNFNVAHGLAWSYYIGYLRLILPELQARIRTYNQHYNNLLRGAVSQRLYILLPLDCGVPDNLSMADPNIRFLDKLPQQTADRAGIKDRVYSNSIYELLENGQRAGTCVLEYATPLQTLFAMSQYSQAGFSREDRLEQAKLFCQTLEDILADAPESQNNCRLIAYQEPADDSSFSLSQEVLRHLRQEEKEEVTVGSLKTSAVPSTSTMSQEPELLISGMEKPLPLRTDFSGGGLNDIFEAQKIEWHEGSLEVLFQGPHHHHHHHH
Method in brief: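 Hi-Five (T. ni) membranes overexpressing the STING variant (2.2 ug/ml working) preincubated with compound 60 min at RT in PBS, then [3H]cGAMP (8 nM working stock) added for 60 min at RT. Bound radioactivity captured on GF/B filters and counted by scintillation; EC50 from 4-parameter fit of control-normalized activity.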

full-length WT STING = target: T2, full-length WT STING (Homo sapiens, UniProt Q86WV6, H232R); experiment: 3H-cGAMP filtration binding assay (WT STING); details: competition with tritiated cGAMP, WT STING membrane
T2 construct: AviTag (after gg linker) (C); HRV3C cleavage site (after gs linker) (C); HIS8 (C); made in house; host or cells: Trichoplusia ni (Hi-Five) insect cells infected with baculovirus (virus generated and amplified in Sf21 cells); used as a washed membrane preparation
T2 sequence (Q86WV6 with tags, fused parts or gaps H232R): as the sequence (Q86WV6 with tags, fused parts or gaps R71H/G230A/H232R/R293Q) above, with H71R, A230G, Q293R counted along it
Method in brief: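 EC50 values come from 4-parameter fits of remaining filter-bound tritium versus log concentration (10-point, 1:3 dilution). Insect-cell membranes carrying full-length WT STING were incubated 60 min at RT with compound and tritiated cGAMP (16 nM working stock) before filtration.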

Row | SMILES | EC50 (full-length HAQ STING) [nM] | EC50 (full-length WT STING) [nM] | activation at 3 µM [1] [%]
1 | COc1cc2sc(CC[C@H](C)C(=O)O)cc2c(F)c1OCCCOc1c(O)cc2sc(C(=O)C[C@H](C)C(=O)O)cc2c1Cl [Example 186, (S)-4-(5-(3-((2-((S)-3-carboxybutyl)-4-fluoro-6-methoxybenzo[b]thiophen-5-yl)oxy)propoxy)-4-chloro-6-hydroxybenzo[b]thiophen-2-yl)-2-methyl-4-oxobutanoic acid] | 133 | 756 | 56
2 | COc1cc2sc(C(=O)C[C@H](C)C(=O)O)cc2c(Cl)c1OCCCOc1c(O)cc2sc(C(=O)C[C@H](C)C(=O)O)cc2c1Cl [Example 187, (S)-4-(5-(3-((2-((S)-3-carboxybutanoyl)-4-chloro-6-hydroxybenzo[b]thiophen-5-yl)oxy)propoxy)-4-chloro-6-methoxybenzo[b]thiophen-2-yl)-2-methyl-4-oxobutanoic acid] | 4 | 46 | 128
3 | COc1cc2sc(C(=O)C[C@H](C)C(=O)O)cc2c(F)c1OCCCOc1c(O)cc2sc(C(=O)C[C@H](C)C(=O)O)cc2c1F [Example 188, (S)-4-(5-(3-((2-((S)-3-carboxybutanoyl)-4-fluoro-6-hydroxybenzo[b]thiophen-5-yl)oxy)propoxy)-4-fluoro-6-methoxybenzo[b]thiophen-2-yl)-2-methyl-4-oxobutanoic acid] | 1 | 1 | 104

Further lines, with some results ahead:

Row | EC50 (full-length HAQ STING) [nM] | EC50 (full-length WT STING) [nM] | SMILES | activation at 3 µM [1] [%]
4 | 1 | 2 | COc1cc2sc(C(=O)C[C@H](C)C(=O)O)cc2cc1OCCCOc1c(O)cc2sc(C(=O)C[C@H](C)C(=O)O)cc2c1F [Example 189, (S)-4-(5-(3-((2-((S)-3-carboxybutanoyl)-4-fluoro-6-hydroxybenzo[b]thiophen-5-yl)oxy)propoxy)-6-methoxybenzo[b]thiophen-2-yl)-2-methyl-4-oxobutanoic acid] | 111
5 | 1 | 2 | COc1cc2sc(C(=O)C[C@H](C)C(=O)O)cc2c(Cl)c1OCCCOc1c(O)cc2sc(C(=O)C[C@H](C)C(=O)O)cc2c1F [Example 190, (S)-4-(5-(3-((2-((S)-3-carboxybutanoyl)-4-chloro-6-methoxybenzo[b]thiophen-5-yl)oxy)propoxy)-4-fluoro-6-hydroxybenzo[b]thiophen-2-yl)-2-methyl-4-oxobutanoic acid] | 126
